# Data reported in patent US5070089A, “Therapeutic agent for liver disease and piperazine derivatives” (Nippon Chemiphar Co., Ltd., priority 1988, dated 1991).
# Where two headings read alike, the source gives them in different places.
# Assays:
# [1] = test system: lipid peroxidation in rat hepatocyte; experiment: Inhibitory action on lipid peroxidation (rat hepatocyte, TBA color formation, absorbance at 530 nm); format: biochemical; conditions: 37° C., 1 hour; for Inhibition ratio (at Final Concentration of Tested Compound) 10^-4 M: final concentration 10^-4 M, 100 µM; for Inhibition ratio (at Final Concentration of Tested Compound) 10^-5 M: final concentration 10^-5 M, 10 µM
# Description: A hepatocyte was isolated from rat according to the method of Ui et al (Hiroshi Oka and Tadao Ui: "Isolated Cells--Experimental and Application",page 91). The determination of lipid peroxidation was performed using a died hepatocyte which had been frozen at -85° C. and stored at the temperature and which was melted when the experimental was done. […] The centrifugal tube was shaken at 37° C. for 1 hour for performing a reaction, and then placed into an ice-water bath to terminate the reaction. […] The centrifugal tube was taken out of the ice-water bath and placed in a water bath (kept at 95°-98° C.). The content of the tube was heated in the bath for 1 hour for developing color-formation. After the heating was complete, the content of the tube was cooled and subjected to centrifugal separation. The inhibitory action on lipid peroxidation of the sample was determined by measuring absorbance at 530 nm. The determined inhibitory action is expressed inhibition ratio by percent (%) calculated by the following equation: [formula] In Table 3, the number of the tested compound corresponds to the identical number set forth in Tables 1 and 2 for identifying the compounds of the invention.
# [2] = test system: acute liver disease caused by CCl4 (Wister-strain rat); experiment: Preventive action on deviation of GOT value and GPT value in vivo using model of acute liver disease caused by CCl4
# Description: CCl4 in olive oil (concentration: 50%) was orally administered to a Wister-strain rat (body weight: 170-180 g) fasted for 24 hrs., at a dose of 1 ml/kg, to cause acute liver disease. […] For control group, 1.0% methylcellulose (MC) was administered in place of the piperazine derivative. For normal group, a simple olive oil was administered in place of the CCl4 -containing olive oil. For the administration, the piperazine derivative was employed in the form of a dispersion in aqueous MC solution (concentration: 1.0%). At 24 hours after the administration of CCl4, the rat was abdominally sectioned under ether anesthesia. From the abrominal large vein, a blood was collected. The collected blood was subjected to centrifugal separation at 3,000 r.p.m. for 10 min to obtain its plasma. […] The results are set forth in Table 4 in terms of a ratio (%) of suppression (prevention) of GOT or GPT. In Table 4, "***" means 90-100%, "**" means 60-90%, and "*" means 30-60%. The ratio of suppression is calculated according to the following equation. [formula]
# [3] = Toxicity by oral administration; format: in vivo; conditions: even at 1,600 mg/kg by oral administration
# Description: Further, it has been experimentally confirmed that all of piperazine derivatives of the invention tested for toxicity (Compound Nos. 4, 5, 22, 23, 32, 33, 38, 75 and 113 indicated in Tables 1 and 2) cause no death even at 1,600 mg/kg by oral administration.
# [4] = rat, 30 mg/kg, 3 hour before oral CCl4, plasma GOT at 24 hours after CCl4, read-out: ratio (%) of suppression (prevention) of GOT
# [5] = rat, 30 mg/kg, 3 hour before oral CCl4, plasma GPT at 24 hours after CCl4, read-out: ratio (%) of suppression (prevention) of GPT
# [6] = Rattus norvegicus, po, 24 h, read-out: ratio (%) of suppression (prevention) of GOT
# [7] = Rattus norvegicus, po, 24 h, read-out: ratio (%) of suppression (prevention) of GPT
Compound,Inhibition ratio (at Final Concentration of Tested Compound) 10^-4 M [1],Inhibition ratio (at Final Concentration of Tested Compound) 10^-5 M [1],"inhibition in vivo at 30 mg/kg [2, 4]","inhibition in vivo at 30 mg/kg [2, 5]",death in toxicity test [3],"inhibition in vivo at 30 mg/kg [2, 6]","inhibition in vivo at 30 mg/kg [2, 7]"
"CSC(=S)N1CCN(CC(O)c2ccc(O)c(O)c2)CC1 (centres unmarked) [Compound 73, Methyl 4-{2-(3,4-dihydroxyphenyl)-2-hydroxy}ethyl-1-piperazinecarbodithioate]",88.4%,44.5%,60 to 90%,60 to 90%,–,–,–
"COc1c(O)c(C)c(CN2CCN(C(=S)SC)CC2)c(O)c1OC [Compound 47, Methyl 4-(2,5-dihydroxy-3,4-dimethoxy-6-methylbenzyl)-1-piperazinecarbodithioate]",100%,56.1%,90 to 100%,90 to 100%,–,–,–
"CSC(=S)N1CCN(Cc2cc(O)ccc2O)CC1.Cl [Compound 16, Methyl 4-(2,5-dihydroxybenzyl)-1-piperazinecarbodithioate hydrochloride]",73.4%,69.4%,90 to 100%,90 to 100%,–,–,–
"COc1cccc(CN2CCN(C(=S)SC)CC2)c1OC [Compound 22, Methyl 4-(2,3-dimethoxybenzyl)-1-piperazinecarbodithioate]",100%,92.0%,–,–,no death,90 to 100%,60 to 90%
"CSC(=S)N1CCN(Cc2ccccc2N)CC1 [Compound 11, Methyl 4-(2-aminobenzyl)-1-piperazinecarbodithioate]",98.6%,95.5%,90 to 100%,90 to 100%,–,–,–
"COc1ccc(OC)c(CN2CCN(C(=S)SC)CC2)c1 [Compound 23, Methyl 4-(2,5-dimethoxybenzyl)-1-piperazinecarbodithioate]",100%,60.6%,–,–,no death,90 to 100%,90 to 100%
"COc1cc(C=O)cc(CN2CCN(C(=S)SC)CC2)c1O [Compound 38, Methyl 4-(5-formyl-2-hydroxy-3-methoxybenzyl)-1-piperazinecarbodithioate]",–,–,–,–,no death,60 to 90%,60 to 90%
"CSC(=S)N1CCN(Cc2ccccc2N(C)C)CC1 [Compound 13, Methyl 4-(2-dimethylaminobenzyl)-1-piperazinecarbodithioate]",98.9%,95.4%,30 to 60%,30 to 60%,–,–,–
"COc1ccc(CN2CCN(C(=S)SC)CC2)c(OC)c1OC [Compound 33, Methyl 4-(2,3,4-trimethoxybenzyl)-1-piperazinecarbodithioate]",–,–,–,–,no death,90 to 100%,60 to 90%
"CSC(=S)N1CCN(Cc2ccc(O)c(O)c2O)CC1 [Compound 32, Methyl 4-(2,3,4-trihydroxybenzyl)-1-piperazinecarbodithioate]",87.8%,87.4%,–,–,no death,60 to 90%,60 to 90%
"CSC(=S)N1CCN(Cc2ccccc2O)CC1 [Compound 4, Methyl 4-(2-hydroxybenzyl)-1-piperazinecarbodithioate]",100%,96.6%,–,–,no death,90 to 100%,90 to 100%
"CCCOC(=O)c1cc(O)c(O)c(O)c1CN1CCN(C(=S)SC)CC1 [Compound 44, Methyl 4-(6-propyloxycarbonyl-2,3,4-trihydroxybenzyl)-1-piperazinecarbodithioate]",96.6%,96.0%,90 to 100%,60 to 90%,–,–,–
"CSC(=S)N1CCN(CC2=C(C)C(=O)C(C)=C(C)C2=O)CC1 [Compound 113, Methyl 4-(3,5,6-trimethyl-1,4-benzoquinonylmethyl)-1-piperazinecarbodithioate]",–,–,–,–,no death,90 to 100%,60 to 90%
"COc1ccc(CC(=O)N2CCN(C(=S)SC)CC2)c(OC)c1OC [Compound 75, Methyl 4-(2,3,4-trimethoxyphenylacetyl)-1-piperazinecarbodithioate]",–,–,–,–,no death,60 to 90%,60 to 90%
"COc1c(OC(C)=O)c(C)c(CN2CCN(C(=S)SC)CC2)c(OC(C)=O)c1OC [Compound 48, Methyl 4-(2,5-diacetoxy-3,4-dimethoxy-6-methylbenzyl)-1-piperazinecarbodithioate]",96.2%,97.5%,60 to 90%,60 to 90%,–,–,–
"COc1ccccc1CN1CCN(C(=S)SC)CC1 [Compound 5, Methyl 4-(2-methoxybenzyl)-1-piperazinecarbodithioate]",–,–,–,–,no death,90 to 100%,90 to 100%
"Oc1cc(CN2CCN(C(=S)S)CC2)cc(O)c1O [Compound 109, 4-(3,4,5-Trihydroxybenzyl)-1-piperazinecarbodithioic acid]",74.9%,24.2%,–,–,–,–,–
